# According to patent US20240041042A1, “1-(PYRIDYL)-5-AZINYLPYRAZOLE DERIVATIVES, AND THEIR USE FOR CONTROL OF UNDESIRED PLANT GROWTH” (Bayer Aktiengesellschaft, priority 2020, published 2024):
# Read-outs that look alike come from different tables or passages of the source.
# Assays:
# Assay type in all cases: in vivo
# [1] = test system: Amaranthus retroflexus (AMARE); assay: Pre-emergence herbicidal action against AMARE; conditions: 320 g/ha, visual scoring after about 3 weeks vs untreated controls
# Summary of the method: (§1)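 Read-out is visual percent damage relative to untreated pots, with 100% meaning dead plants and 0% meaning no difference, assessed roughly three weeks after treatment. Compounds were applied pre-emergence to the covering soil at up to 320 g/ha.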
# Glycine max (GLXMA) = conditions: pre-emergence, 80 g/ha, crop plant compatibility, in comparison to untreated controls
# Summary of the method: (§2)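 Scoring: visual, % of untreated control, about 3 weeks after a pre-emergence application to the soil surface. Application used WP or EC formulations diluted in water with 0.5% additive at 600 l/ha; dosage levels are marked by suffixes a, b and c.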
# [2] = test system: Triticum aestivum (TRZAS); conditions: pre-emergence, 80 g/ha, crop plant compatibility, in comparison to untreated controls
# Summary of the method: as §2
# Oryza sativa (ORYSA) [3] = conditions: pre-emergence, crop plant compatibility, in comparison to untreated controls
# Summary of the method: as §2
# [4] = test system: Amaranthus retroflexus (AMARE); assay: Post-emergence herbicidal action against AMARE; conditions: 80 g/ha, visual rating about 3 weeks after treatment vs untreated controls (100% = plants have died, 0% = like control plants)
# Summary of the method: (§3)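 Greenhouse plants sprayed at the one-leaf stage, 2–3 weeks after sowing, with WP or EC formulations plus 0.5% additive at 600 l/ha water. Activity rated visually after about 3 weeks versus untreated controls (100% = dead, 0% = like control), at 320 g/ha or lower.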
# [5] = test system: Triticum aestivum (TRZAS); conditions: crop plant compatibility, effect vs untreated controls
# Summary of the method: (§4)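 Foliar application at the one-leaf stage: WP/EC formulation, 0.5% additive, 600 l/ha water. Greenhouse-grown in sandy loam. Endpoint is visual % injury relative to untreated controls at about 3 weeks.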
# Zea mays (ZEAMX) [6] = conditions: for Post-emergence action against ZEAMX in % (crop plant compatibility): 20 g/ha, effect in comparison to untreated controls
# Summary of the method: as §4
# Oryza sativa (ORYSA) [7] = conditions: crop plant compatibility
# Summary of the method: as §4
# [8] = test system: Pharbitis purpurea (PHBPU); assay: Post-emergence herbicidal action against PHBPU
# Summary of the method: as §3
# Viola tricolor (VIOTR) [9] = assay: Pre-emergence herbicidal action against VIOTR
# Summary of the method: as §1
# [10] = test system: Echinochloa crus-galli (ECHCG); assay: Pre-emergence herbicidal action against ECHCG; conditions: dosage 320 g/ha
# Summary of the method: as §1
# [11] = test system: Echinochloa crus-galli (ECHCG); assay: Post-emergence herbicidal action against ECHCG; conditions: dosage 320 g/ha
# Summary of the method: as §3
# [12] = test system: Alopecurus myosuroides (ALOMY); assay: Pre-emergence herbicidal action against ALOMY; conditions: 320 g/ha; scored visually after about 3 weeks; 100% = plants have died
# Summary of the method: as §1
# [13] = test system: Verconica persica (VERPE); assay: Post-emergence herbicidal action against VERPE; conditions: 320 g/ha, VERPE
# Summary of the method: as §3
# [14] = test system: Polygonum convolvulus (POLCO); assay: Pre-emergence herbicidal action against POLCO
# Summary of the method: as §1
# [15] = test system: Pharbitis purpurea (PHBPU); assay: Pre-emergence herbicidal action against PHBPU; conditions: dosage 320 g/ha
# Summary of the method: as §1
# [16] = test system: Digitaria sanguinalis (DIGSA); assay: Pre-emergence herbicidal action against DIGSA; conditions: dosage 320 g/ha
# Summary of the method: as §1
# Viola tricolor (VIOTR) [17] = assay: Post-emergence herbicidal action against VIOTR; conditions: 320 g/ha
# Summary of the method: as §3
# [18] = test system: Alopecurus myosuroides (ALOMY); assay: Post-emergence herbicidal action against ALOMY; conditions: 320 g/ha, visual rating about 3 weeks after treatment vs untreated controls (100% = plants have died, 0% = like control plants)
# Summary of the method: as §3
# [19] = test system: Matricaria inodora (MATIN); assay: Post-emergence herbicidal action against MATIN; conditions: dosage 320 g/ha
# Summary of the method: as §3
# [20] = test system: Matricaria inodora (MATIN); assay: Pre-emergence herbicidal action against MATIN; conditions: dosage 320 g/ha
# Summary of the method: as §1
# Zea mays (ZEAMX) [21] = conditions: pre-emergence, crop plant compatibility, in comparison to untreated controls
# Summary of the method: as §2
# Setaria viridis (SETVI) = assay: Pre-emergence herbicidal action against SETVI; conditions: dosage 320 g/ha
# Summary of the method: as §1
# [22] = test system: Abutilon theophrasti (ABUTH); assay: Post-emergence herbicidal action against ABUTH; conditions: 80 g/ha, visual rating about 3 weeks after treatment vs untreated controls (100% = plants have died, 0% = like control plants)
# Summary of the method: as §3
# [23] = 20 g/ha, effect vs untreated controls
# [24] = 80 g/ha, effect in comparison to untreated controls
Pre-emergence action against GLXMA in % (Glycine max (GLXMA)),Pre-emergence action against TRZAS in % [2],Pre-emergence action against ORYSA in % (Oryza sativa (ORYSA) [3]; 80 g/ha),Pre-emergence action against ORYSA in % (Oryza sativa (ORYSA) [3]; 320 g/ha),Post-emergence action against TRZAS in % ([5]; 20 g/ha),Post-emergence action against ZEAMX in % (crop plant compatibility) (Zea mays (ZEAMX) [6]),Post-emergence action against ORYSA in % (Oryza sativa (ORYSA) [7]; [23]),Post-emergence action against ORYSA in % (Oryza sativa (ORYSA) [7]; [24]),Pre-emergence action against ZEAMX in % (Zea mays (ZEAMX) [21]; 80 g/ha),Pre-emergence action against ZEAMX in % (Zea mays (ZEAMX) [21]; 320 g/ha),Compound,Pre-emergence action against AMARE in % [1],Post-emergence action against AMARE in % [4],Post-emergence action against PHBPU in % ([8]; dosage 80 g/ha),"Pre-emergence action against VIOTR in % (Viola tricolor (VIOTR) [9]; 320 g/ha, Viola tricolor)",Pre-emergence action against ALOMY [12],other results
0%,20%,0%,20%,20%,0%,0%,0%,,,COC(=O)CCOC(=O)COc1nn(-c2ccnc(Cl)c2)c(-c2ccc(F)nc2)c1Br [III-19],80%,80%,80%,,,
10%,0%,,,,,,,,,COC(=O)COc1nn(-c2ncccc2C(F)(F)F)c(-c2cncc(F)c2)c1Br [Example I-206],90%,,,100%,80%,Pre-emergence action against VIOTR in % (Viola tricolor (VIOTR) [9]; dosage 80 g/ha): 90%; Pre-emergence action against ECHCG in % [10]: 80%; Post-emergence action against ECHCG in % [11]: 80%; Post-emergence action against VERPE in % [13]: 80%; Pre-emergence action against POLCO in % ([14]; dosage 80 g/ha): 80%; Pre-emergence action against POLCO in % ([14]; dosage 320 g/ha): 80%; Pre-emergence action against PHBPU in % [15]: 80%; Pre-emergence action against DIGSA in % [16]: 90%; Post-emergence action against VIOTR in % (Viola tricolor (VIOTR) [17]): 80%; Post-emergence action against ALOMY in % [18]: 80%; Post-emergence action against MATIN in % [19]: 80%; Post-emergence action against PHBPU in % ([8]; dosage 320 g/ha): 90%; Pre-emergence action against MATIN in % [20]: 90%
0%,0%,0%,10%,20%,20%,0%,0%,20%,20%,COC(=O)[C@H](C)COC(=O)COc1nn(-c2ccnc(Cl)c2)c(-c2ccc(F)nc2)c1Br [III-17],90%,80%,80%,,,"Post-emergence action against ZEAMX in % (Zea mays (ZEAMX) [6]; crop plant compatibility, 80 g/ha, effect vs untreated controls): 20%"
0%,0%,0%,0%,0%,,0%,20%,0%,0%,CCOC(=O)COc1nn(-c2ccccn2)c(-c2ccc(F)nc2)c1C1CC1 [Example I-78],,80%,,80%,90%,Pre-emergence action against SETVI in % (Setaria viridis (SETVI)): 80%; Post-emergence action against ABUTH in % [22]: 80%; Post-emergence action against TRZAS in % ([5]; 80 g/ha): 20%
